One experiment addresses T1, Recombinant human CD38 (Homo sapiens, UniProt P28907).
T1 sequence (P28907 1-300): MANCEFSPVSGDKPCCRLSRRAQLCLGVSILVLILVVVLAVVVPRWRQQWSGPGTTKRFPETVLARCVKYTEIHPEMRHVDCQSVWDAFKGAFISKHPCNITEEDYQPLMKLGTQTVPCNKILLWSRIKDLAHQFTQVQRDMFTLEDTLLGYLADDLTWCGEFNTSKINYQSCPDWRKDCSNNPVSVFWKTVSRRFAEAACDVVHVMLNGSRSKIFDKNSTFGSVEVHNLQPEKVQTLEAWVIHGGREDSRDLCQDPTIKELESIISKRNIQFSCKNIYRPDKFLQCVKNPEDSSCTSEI
Description: Human CD38 hydrolase assay (fluorescence-based, ε-NAD substrate). It is filed as biochemical. As to conditions: recombinant human CD38 0.8 nM, 4 μM ε-NAD, 30 min preincubation at 25° C. The procedure: The ability of test compounds to inhibit human CD38 hydrolase activity was measured in a fluorescence-based assay using non-physiological NAD^+ substrate analogue 1,N^6-etheno NAD^+ (ε-NAD). Recombinant human CD38 (0.8 nM) was preincubated with test compounds in 384-well black microplates for 30 min at 25° C. in PBS (—Ca^2+/Mg^2+) containing 0.005% BSA (pH 7.4). CD38 hydrolase activity was initiated by addition of 4 μM ε-NAD, which yields the fluorescent product 1,N^6-etheno ADP-ribose. Formation of fluorescent product was followed using ClarioStar Plus (BMG) microplate reader by reading fluorescence (excitation λ=300 nm; emission λ=410 nm) at two time points, one immediately after substrate addition (t=0) and one at 10 min (t=10). Data was analysed by subtracting the values detected at t=0 from t=10 to correct for variation in baseline fluorescence. Fluorescence values were converted to percent inhibition using the average of high signal (CD38 and ε-NAD) and low signal (CD38 and ε-NAD in the presence of a tool CD38 inhibitor) control wells. IC50 values were determined from a 10-point, half log concentration response curve with a four-parameter logistic equation.

The target of a further experiment is T2, Recombinant mouse CD38 (Mus musculus, UniProt P56528).
T2 sequence (P56528 1-304): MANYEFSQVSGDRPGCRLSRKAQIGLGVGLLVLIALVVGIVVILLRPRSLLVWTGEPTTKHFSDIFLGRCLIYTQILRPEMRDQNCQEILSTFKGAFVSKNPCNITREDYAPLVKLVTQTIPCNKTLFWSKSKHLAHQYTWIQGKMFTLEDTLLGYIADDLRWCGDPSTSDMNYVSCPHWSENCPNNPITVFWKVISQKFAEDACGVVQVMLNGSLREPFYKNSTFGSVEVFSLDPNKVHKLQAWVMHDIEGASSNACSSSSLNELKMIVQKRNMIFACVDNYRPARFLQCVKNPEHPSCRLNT
As to the kind of experiment: Mouse CD38 hydrolase assay (fluorescence-based, ε-NAD substrate). Format: biochemical. The settings on record: recombinant mouse CD38 0.4 nM, 12 μM ε-NAD, 30 min preincubation at 25° C. The procedure: The ability of test compounds to inhibit mouse CD38 hydrolase activity was measured in a fluorescence-based assay using non-physiological NAD^+ substrate analogue 1,N^6-etheno NAD^+ (&-NAD). Recombinant mouse CD38 (0.4 nM) was preincubated with test compounds in 384-well black microplates for 30 min at 25° C. in PBS (—Ca^2+/Mg^2+) containing 0.005% BSA (pH 7.4). CD38 hydrolase activity was initiated by addition of 12 μM ε-NAD, which yields the fluorescent product 1,N^6-etheno ADP-ribose. Formation of fluorescent product was followed using ClarioStar Plus (BMG) microplate reader by reading fluorescence (excitation λ=300 nm; emission λ=410 nm) at two time points, one immediately after substrate addition (t=0) and one at 6 min (t=6).
Data was analysed by subtracting the values detected at t=0 from t=6 to correct for variation in baseline fluorescence. Fluorescence values were converted to percent inhibition using the average of high signal (CD38 and ε-NAD) and low signal (CD38 and ε-NAD in the presence of a tool CD38 inhibitor) control wells. IC50 values were determined from a 10-point, halflog concentration response curve with a four-parameter logistic equation.

For `O=C(N[C@H]1CC[C@H](N2CC[C@H](F)C2)CC1)c1cn2ncnc2c(-n2ccnc2)n1` [Example 25, N-((1S,4r)-4-((S)-3-fluoropyrrolidin-1-yl)cyclohexyl)-8-(1H-imidazol-1-yl)-[1,2,4]triazolo[1,5-a]pyrazine-6-carboxamide], the values for the half-maximal inhibitory concentration (IC50) at Recombinant human CD38 and on Recombinant mouse CD38 were at most 1000 nM and at most 40 nM, respectively.

For `CN(CC(F)(F)F)[C@H]1CC[C@H](NC(=O)c2cn3ncnc3c(-n3ccnc3)n2)CC1` [Example 47, 8-(1H-imidazol-1-yl)-N-((1r,4r)-4-(methyl (2,2,2-trifluoroethyl)amino)cyclohexyl)-[1,2,4]triazolo[1,5-a]pyrazine-6-carboxamide], the values for the IC50 on Recombinant human CD38 and at Recombinant mouse CD38 were at most 100 nM and at most 40 nM, respectively.

Consider `O=C(N[C@H]1C[C@H](NCC(F)(F)F)C1)c1nc(-n2ccnc2)nn2cccc12` [Example 11, 2-(1H-imidazol-1-yl)-N-((1r,3r)-3-((2,2,2-trifluoroethyl)amino)cyclobutyl)pyrrolo[2,1-f][1,2,4]triazine-4-carboxamide], for which the IC50 on Recombinant human CD38 and on Recombinant mouse CD38 was at most 40 nM in each case.

In the case of `O=C(N[C@H]1CC[C@H](NCC(F)F)CC1)c1nc(-n2ccnc2)nn2cccc12` [Example 31, N-((1r,4r)-4-((2,2-difluoroethyl)amino)cyclohexyl)-2-(1H-imidazol-1-yl)pyrrolo[2,1-f][1,2,4]triazine-4-carboxamide], the IC50 on Recombinant human CD38 and at Recombinant mouse CD38 was at most 40 nM each time.

For `O=C(N[C@H]1CC[C@H](NCC(F)(F)F)CC1)c1cn2cccc2c(-n2ccnc2)n1` [Example 15, 1-(1H-imidazol-1-yl)-N-((1r,4r)-4-((2,2,2-trifluoroethyl)amino)cyclohexyl)pyrrolo[1,2-a]pyrazine-3-carboxamide], the IC50 on Recombinant human CD38 and on Recombinant mouse CD38 was at most 40 nM in each case.

Turning to `O=C(NC1CCOCC1)c1nc(-n2ccnc2)nc2ncccc12` [Example 3, 2-(1H-imidazol-1-yl)-N-(tetrahydro-2H-pyran-4-yl)pyrido[2,3-d]pyrimidine-4-carboxamide], the half-maximal inhibitory concentration (IC50) at Recombinant human CD38 and at Recombinant mouse CD38 was at most 40 nM each time.

In the case of `O=C(N[C@H]1CC[C@@H](N2CCCC2)CC1)c1nc(-n2ccnc2)nn2cccc12` [Example 44, 2-(1H-imidazol-1-yl)-N-((1s,4s)-4-(pyrrolidin-1-yl)cyclohexyl)pyrrolo[2,1-f][1,2,4]triazine-4-carboxamide], the 50% inhibitory concentration (IC50) (commonly the concentration that gives 50% inhibition) is at most 1000 nM on Recombinant human CD38 and at most 40 nM on Recombinant mouse CD38.

On to `CC1(F)CN([C@H]2CC[C@H](NC(=O)c3cn4ncnc4c(-n4ccnc4)n3)CC2)C1` [Example 46, N-((1r,4r)-4-(3-fluoro-3-methylazetidin-1-yl)cyclohexyl)-8-(1H-imidazol-1-yl)-[1,2,4]triazolo[1,5-a]pyrazine-6-carboxamide], for which the IC50 on Recombinant human CD38 is at most 100 nM; on Recombinant mouse CD38 it was at most 40 nM.

Consider `O=C(N[C@H]1CC[C@H](NCC(F)F)CC1)c1cn2nccc2c(-n2ccnc2)n1` [Example 37, N-((1r,4r)-4-((2,2-difluoroethyl)amino)cyclohexyl)-4-(1H-imidazol-1-yl)pyrazolo[1,5-a]pyrazine-6-carboxamide], for which the IC50 on Recombinant human CD38 is at most 100 nM; on Recombinant mouse CD38, at most 40 nM.

Turning to `O=C(NC1CC2(CC(NCC(F)(F)F)C2)C1)c1nc(-n2ccnc2)nn2cccc12` (single isomer, unassigned) [Example 9, 2-(1H-imidazol-1-yl)-N-(6-((2,2,2-trifluoroethyl)amino)spiro[3.3]heptan-2-yl)pyrrolo[2,1-f][1,2,4]triazine-4-carboxamide], the IC50 on Recombinant human CD38 and on Recombinant mouse CD38 was at most 40 nM in each case.

For `O=C(N[C@H]1CC[C@H](N2CC[C@@H](F)C2)CC1)c1cn2cccc2c(-n2ccnc2)n1` [Example 24, N-((1R,4r)-4-((R)-3-fluoropyrrolidin-1-yl)cyclohexyl)-1-(1H-imidazol-1-yl)pyrrolo[1,2-a]pyrazine-3-carboxamide], the concentration for half-maximal inhibition (IC50) is at most 1000 nM on Recombinant human CD38 and at most 40 nM at Recombinant mouse CD38.

Regarding `O=C(NC1CCN(CC(F)(F)F)CC1)c1cn2ncnc2c(-n2ccnc2)n1` [Example 50, 8-(1H-imidazol-1-yl)-N-(1-(2,2,2-trifluoroethyl)piperidin-4-yl)-[1,2,4]triazolo[1,5-a]pyrazine-6-carboxamide], the IC50 at Recombinant human CD38 is at most 1000 nM; at Recombinant mouse CD38, at most 100 nM.

As to “N-((1r,4r)-4-((2,2-difluoroethyl)amino)cyclohexyl)-2-(1H-imidazol-1-yl)pyrido[2,3-d]pyrimidine-4-carboxamide [Example 33]”, the IC50 at Recombinant human CD38 and at Recombinant mouse CD38 was at most 40 nM throughout.

With `Cc1cncn1-c1nc(C(=O)N[C@H]2CC[C@H](NCC(F)(F)F)CC2)c2cccn2n1` [Example 42, 2-(5-methyl-1H-imidazol-1-yl)-N-((1r,4r)-4-((2,2,2-trifluoroethyl)amino)cyclohexyl)pyrrolo[2,1-f][1,2,4]triazine-4-carboxamide], the half-maximal inhibitory concentration (IC50) on Recombinant human CD38 and at Recombinant mouse CD38 was at most 40 nM each time.

On to `O=C(N[C@H]1CC[C@H](NCC(F)(F)F)CC1)c1nc(-n2ccnc2)cc2nccn12` [Example 2, 7-(1H-imidazol-1-yl)-N-((1r,4r)-4-((2,2,2-trifluoroethyl)amino)cyclohexyl) imidazo[1,2-c]pyrimidine-5-carboxamide], for which the concentration for half-maximal inhibition (IC50) at Recombinant human CD38 and on Recombinant mouse CD38 was at most 40 nM in each case.

Turning to `O=C(N[C@H]1CC[C@H](NCC(F)(F)F)CC1)c1nc(-c2cncs2)nn2cccc12` [Example 30, 2-(thiazol-5-yl)-N-((1r,4r)-4-((2,2,2-trifluoroethyl)amino)cyclohexyl)pyrrolo[2,1-f][1,2,4]triazine-4-carboxamide], the half-inhibitory concentration (IC50) at Recombinant human CD38 was at most 100 nM; on Recombinant mouse CD38 it was at most 40 nM.

With `O=C(N[C@H]1CC[C@H](N2CC[C@H](F)C2)CC1)c1cn2cccc2c(-n2ccnc2)n1` [Example 22, N-((1S,4r)-4-((S)-3-fluoropyrrolidin-1-yl)cyclohexyl)-1-(1H-imidazol-1-yl)pyrrolo[1,2-a]pyrazine-3-carboxamide], the half-maximal inhibitory concentration (IC50) is at most 1000 nM at Recombinant human CD38 and at most 40 nM at Recombinant mouse CD38.

`O=C(N[C@H]1CC[C@@H](N2CCSCC2)CC1)c1cn2ncnc2c(-n2ccnc2)n1` [Example 55, 8-(1H-imidazol-1-yl)-N-((1s,4s)-4-thiomorpholinocyclohexyl)-[1,2,4]triazolo[1,5-a]pyrazine-6-carboxamide]: the IC50 at Recombinant human CD38 was at most 1000 nM; on Recombinant mouse CD38, at most 40 nM.

Consider `CC(C)(N[C@H]1CC[C@H](NC(=O)c2cn3ncnc3c(-n3ccnc3)n2)CC1)C(F)(F)F` [Example 53, 8-(1H-imidazol-1-yl)-N-((1r,4r)-4-((1,1,1-trifluoro-2-methylpropan-2-yl)amino)cyclohexyl)-[1,2,4]triazolo[1,5-a]pyrazine-6-carboxamide], for which the IC50 was at most 1000 nM on Recombinant human CD38 and at most 40 nM at Recombinant mouse CD38.

For the compound `O=C(N[C@H]1CC[C@H](N2CC[C@@H](O)C2)CC1)c1nc(-n2ccnc2)nn2cccc12` [Example 27, N-((1R,4r)-4-((R)-3-hydroxypyrrolidin-1-yl)cyclohexyl)-2-(1H-imidazol-1-yl)pyrrolo[2,1-f][1,2,4]triazine-4-carboxamide], the concentration for half-maximal inhibition (IC50) on Recombinant human CD38 and on Recombinant mouse CD38 was at most 40 nM throughout.

Take `O=C(N[C@H]1CC[C@H](N2CC[C@H](F)C2)CC1)c1cn2ccnc2c(-n2ccnc2)n1` [Example 40, N-((1S,4r)-4-((S)-3-fluoropyrrolidin-1-yl)cyclohexyl)-8-(1H-imidazol-1-yl) imidazo[1,2-a]pyrazine-6-carboxamide]: the IC50 at Recombinant human CD38 is at most 1000 nM; on Recombinant mouse CD38 it was at most 40 nM.

The values above are taken from patent US20260224582A1, “Heterobicyclic amides as inhibitors of CD38” (Cerevance, Inc., priority 2022, published 2026).
